# According to patent publication US20240352419A1, “METHODS AND COMPOSITIONS FOR DIFFERENTIATION OF PLURIPOTENT STEM CELLS AND DERIVED HEMATOPOIETIC LINEAGE CELLS” (NUWACELL BIOTECHNOLOGIES CO., LTD., priority 2022, published 2024):
# Key:
# Assay type in all cases: cell-based
# [1] = test system: PBNK cells; test: Expansion of PBNK cells from PBMCs (expansion fold, CD56+CD3- percentage by flow cytometry); conditions: effect of heparin sodium concentration (0-50 μg/mL) in NKSFM
# Description: The effect of the concentration of nicotinamide (NAM) in an exemplary basal medium on NK cell expansion was evaluated. The above basal medium comprised the following components: IMDM (Sigma):RPMI1640 (Gibco) (50%: 50%); about 1.3 ng/ml of Cupric sulfate, about 3 μM of Ferric sulfate, about 0.432 μg/mL of Zinc sulfate, about 1˜50 ng/ml of Na Selenite, about 110 μg/mL of Sodium pyruvate, 0.1˜20 μg/mL of Insulin, 1˜200 μg/mL of Transferrin, about 1% (v/v) of GlutaMAX-1, 0.1˜20 mg/mL of HSA, 1˜400 μM of MTG, about 80 μg/mL of Ascorbic acid and indicated concentration of NAM. Peripheral blood mononuclear cells (PBMCs) were isolated by density gradient centrifugation using Ficoll-Paque. On Day 0, PBMCs were plated at 1×10^6 cells/mL in a 48-well-plate in the basal medium with NAM (either 0, 1, 2, 2.5, 3, 3.5, 4, or 5 mM) and stimulated with the following reagents for 3 days: immobilized CD16 antibody (Biolegend, 302014) (135 ng/cm^2), IL-2 (700 IU/mL), IL-15 (10 ng/ml) and OK432 (0.01 KE/mL). On day 3, cells were re-suspended in the above basal medium supplemented with IL-2 (700 IU/mL) and IL-15 (10 ng/mL). Fresh medium was added every other day to maintain cell density below 2×10^6 cells/mL. Cells were collect on Day 14 and stained with CD56-PE and CD3-PerCP-Cy5.5 antibodies, the percentage of CD56^+CD3^− NK cells was analyzed by flow cytometry.
# (§1) The effect of heparin sodium concentration in an exemplary NKSFM on NK cell expansion was also evaluated. NKSFM comprised the following components: IMDM (Sigma):DMEM/F12 (Gibco) (50%: 50%); about 20 μM of Ethanolamine, about 1˜50 ng/ml of Na Selenite, about 110 μg/mL of Sodium pyruvate, 0.1˜20 μg/mL of Insulin, 1˜200 μg/mL of Transferrin, about 1% (v/v) of GlutaMAX-1, 0.1˜20 mg/mL of Human serum albumin, 1˜400 μM of MTG, about 80 μg/mL of Ascorbic acid, about 1˜5 mM of NAM, 4% (v/v) of PLT, and indicated concentration of heparin sodium. PBMCs were isolated by density gradient centrifugation using Ficoll-Paque. On Day 0, PBMCs were plated at 1×10^6 cells/mL in a 48-well-plate in NKSFM with heparin sodium (0, 0.5, 1, 3, 10, 30, or 50 μg/mL) and stimulated with the following reagents for 3 days: immobilized CD16 antibody (Biolegend, 302014) (135 ng/cm^2), OK432 (0.01 KE/mL), NeoIL-2 (50 ng/ml), IL-12 (10 ng/mL), IL-18 (50 ng/mL). […] Cells were collect on Day 13 and stained with CD56-PE and CD3-PerCP-Cy5.5 antibodies, the percentage of CD56^+CD3^− NK cells was analyzed by flow cytometry. The specific lysis of K562 tumor cells by NK cells were assessed by CFSE/7-AAD cytotoxicity assay. […] After incubation for 4 hours, cells were stained with 7-AAD (Live/dead staining) and analyzed with flow cytometry.
# The effect of PLT percentage (v/v) in an exemplary NKSFM on NK cell expansion was evaluated. […]
# [2] = test system: K562 tumor cells; test: CFSE/7-AAD cytotoxicity assay of expanded NK cells; conditions: effect of heparin sodium concentration in NKSFM, E:T 3:1, 4 hours, FIG. 3C
# Description: as §1, with “Ficoll-Paque.” for “Ficoll-Paque. On Day 0, PBMCs were plated at 1×10^6 cells/mL in a 48-well-plate in NKSFM with heparin sodium (0, 0.5, 1, 3, 10, 30, or 50 μg/mL) and stimulated with the following reagents for 3 days: immobilized CD16 antibody (Biolegend, 302014) (135 ng/cm^2), OK432 (0.01 KE/mL), NeoIL-2 (50 ng/ml), IL-12 (10 ng/mL), IL-18 (50 ng/mL).”
# The effect of PLT percentage (v/v) in an exemplary NKSFM on NK cell expansion was evaluated. […] Cells were collect on Day 14 and stained with CD56-PE and CD3-PerCP-Cy5.5 antibodies, the percentage of CD56^+CD3^− NK cells was analyzed by flow cytometry. The specific lysis of K562 tumor cells by NK cells were assessed by CFSE/7-AAD cytotoxicity assay. […]
# [3] = test system: K562 cells; test: Cytotoxicity of Stage 3 iNK cells by CFSE/7AAD assay; conditions: added to Stage 3 medium (IL-10 20 ng/mL, IL-18 50 ng/mL), E:T 3:1, 4 hr, FIG. 13A
# Description: hiPSCs were prepared as described in CN108373998B. On Day −1, Embryoid body (EB) formation (Stage 1-1) was carried out by placing individualized hiPSCs in E8 medium containing 10 μM Blebbistatin in T25 flasks on a bellydancer and culture overnight. On Day 0, lateral mesoderm differentiation (Stage 1-2) was initiated by changing the medium to a Stage 1-2 differentiation medium comprising IF-4 basal medium and supplemented with BMP4 (25 ng/mL), VEGF (15 ng/ml), bFGF (0.5 ng/mL) and CHIR99021 (4 μM) for 2 days. On Day 2, lateral mesoderm differentiation (Stage 1-3) continued for 1 day in a Stage 1-3 differentiation medium comprising IF-4 basal medium and supplemented with BMP4 (25 ng/mL), VEGF (50 ng/mL) and bFGF (0.5 ng/mL) and CHIR99021 (1 μM). On Day 3, HE specification (Stage 1-4) was initiated by adding a Stage 1-4 differentiation medium comprising IF-4 basal medium and supplemented with VEGF (15 ng/ml), bFGF (5 ng/ml), XAV939 (5 μM) for 1 day. […] On Day 11 of co-culture, iNK cells were collected and stained with CD56-PE antibody (BD, #555516), the percentage of CD56+ cells was analyzed by flow cytometry. The cytotoxicity of Stage 3 iNK cells towards K562 cells was detected by CFSE/7AAD assay after 4 hr co-culture at E:T of 3:1.
Substance,"NK cell expansion fold ([1]; Day 13, FIG. 3A)","percentage of CD56+CD3− NK cells ([1]; Day 13, FIG. 3B)",specific lysis of K562 tumor cells [2],cytotoxicity of iNK cells [3]
heparin sodium,significantly influences,minimal effect,minimal effect,–
IL-10: interleukin added to Stage 3 expansion and maturation medium,–,–,–,significantly improve
